This is an account of results in PMC6843832, “Synthesis of Novel Analogs of Thieno[2,3-d] Pyrimidin-4(3H)-ones as Selective Inhibitors of Cancer Cell Growth” (Biomolecules, 2019).

One data set in a line: MTT assay, HL-7702 cells. The class given is cell-based, human. The conditions noted are these: HL-7702 cells (normal liver cells); normal human liver cells, MTT, 72 h; read-out: Cytotoxic activity (IC50) HL-7702. The procedure: (§1) Primary human liver HL-7702 cells were purchased from SIBS (Shanghai Institutes for Biological Sciences, Shanghai, China) while MCF-7, A549, PC-9 and PC-3 cells were from ATCC (American Type Culture Collection, Rockville, MD, USA). HL-7702, PC-9 and A549 cells were incubated with Roswell Park Memorial Institute (RPMI) 1640 medium and MCF-7 were cultured in Dulbecco’s Modified Eagle’s Medium (DMEM) supplemented with 10% heat-inactivated fetal bovine serum (FBS) and 1% antibiotics (penicillin and streptomycin). PC-3, a human prostate adenocarcinoma cell, was maintained in Ham’s F-12 Medium supplemented with 10% FBS, 1% penicillin/streptomycin and 1% glutamine. All cells were cultured at 37 °C in an incubator containing 5% CO2. The cell viability was determined by using the MTT (methyl thiazolyl tetrazolium bromide) assay. Briefly, cells were seeded in 96-well plates (4 × 10^3 cells/well) overnight and exposed to the synthesized compounds with various concentrations. Camptothecin and dimethyl sulfoxide (DMSO) served as a positive control and a negative control respectively. After 72 h of incubation, 20 μL of MTT (5 mg/mL in phosphate buffer saline (PBS)) were added into each well. Dissolved yellowish MTT is converted to an insoluble purple formazan during incubation (4 h). In order to dissolve the formazan crystals, 100 μL of lysis solution (10% SDS (sodium dodecyl sulfate)-5% isobutyl alcohol-0.01M HCl) was added into per well. Finally, the optical density (OD) of solution in the plates was measured using a microplate reader at 570 nm after dissolving overnight. Cell viability was calculated by using the following formula: […].

The next data set has as its system HL-7702 cells. In words: MTT assay, HL-7702 cells. The class given is cell-based, human. The conditions noted are these: HL-7702, MTT. As for the experimental part: as §1
(Tetrazolium assays rely on reduction of a dye to a coloured formazan, in cell work by metabolically active cells.)

Another data set has as its system PC-3 cells. In words: MTT assay, PC-3 cells. The note with it: human prostate cancer cells, 72 h, read-out: Cytotoxic activity (IC50) PC-3. It is filed as cell-based. The procedure:
as §1

A further data set deals with PC-9 cells. Put plainly: MTT assay, PC-9 cells. It is filed as cell-based. The conditions noted are these: human non-small cell lung cancer cells, 72 h, read-out: Cytotoxic activity (IC50) PC-9. The procedure: as §1
The test system of another data set is MCF-7 cells. Put plainly: MTT assay, MCF-7 cells. The class given is cell-based. The conditions noted are these: MCF7, human breast cancer cells, 72 h, read-out: Cytotoxic activity (IC50) MCF-7. As for the experimental part: as §1
For data set [1], the system named is A549 cells. Put plainly: MTT assay, A549 cells. It is filed as cell-based. The conditions noted are these: Homo sapiens, A549, 72 h, human non-small cell lung cancer cells, read-out: Cytotoxic activity (IC50) A549. As for the experimental part:
as §1

Data set [2] deals with A549 cells. In words: Colony formation assay. The class given is cell-based. The conditions noted are these: Homo sapiens, read-out: inhibition rate of colony formation. The procedure: The colony formation assay was executed to assess the colony forming ability of cancer cells treated by compounds. After being trypsinized and counted, the cells were seeded again on a 6-well plate with 4000 cells/well. Subsequently, cells were incubated at 37 °C in 5% CO2 overnight with medium. Afterwards, the cells were being treated with drugs (1 μM, 10 μM) and camptothecin (0.1 μM) for 10 days. Then, fresh PBS (1 mL/well) was added to wash the cells twice, before fixing with the stationary solution (10% acetic acid- 10% methanol- 80% dd H2O, 1 mL/well) at room temperature for 30 min. After that, 1% crystal violet was used to stain the cells. The cell viability was evaluated by the number of purple colonies.

Data set [3] has as its system A549 cells. Put plainly: Hoechst 33258 staining (apoptosis). The class given is cell-based, human. The conditions noted are these: 72 h. The procedure:
For Hoechst staining, A549 cells were seeded in 6-well plates (8 × 10^4 cells/well) and allowed to adhere overnight. Compounds at a final concentration of 10, 5 and 1 µM were used to treat cells in the exponential growth phase for 72 h. Following this, the staining solution was added to the well plates and held at room temperature for 10 min. Afterwards, Hoechst 33258 was added to dye the cells for 10 min at room temperature in the dark. After washing two times with PBS, the treated cells were photographed under a semi-electrical fluorescence microscope (Olympus BX53, Olympus, Tokyo, Japan), to capture images of the stained nuclei from each well from randomly selected regions.

A further data set deals with caspase-3. In words: Caspase-3 activity assay. The class given is cell-based, human. The conditions noted are these: A549 cells, 0, 1, 5 μM, 48 h. The procedure:
Briefly, A549 cells were cultured at 2 × 10^5 cells/well in 6-well plates and incubated with different concentrations of compounds (0, 1, 5 µM) for 48 h. At the end of the treatment, cells were harvested and lysed by the addition of lysis buffer from the caspase-3 assay kit. Aliquots of cell lysate were added to 96-well plates and the supernatant of cell lysates were mixed with buffer containing the above substrate peptides for 2 h at 37 °C. The absorbance in each well was measured at 405 nm using a microplate reader.

The subject of the next data set is Bcl-2. In words: Western blotting, Bcl-2. It is filed as cell-based, human. The conditions noted are these: A549 cells, 0-10 μM, 72 h, western blot. The procedure:
(§2) Total protein samples were extracted from A549 cells. cells were treated with different concentrations of compounds for 72 h, then the cells were collected, homogenized in 100 µL of ice-cold lysis buffer containing 2% SDS (sodium dodecyl sulfate), 10% DTT (dithiothreitol), 10% glycerin, 0.1% BPB (bromophenol blue) and 50mM Tris buffer (pH 6.8). After cell lyses were boiled for 30 min at 100 °C, samples were resolved on 12% SDS-PAGE (polyacrylamide gel) and then transferred to nitrocellulose (NC) membranes. Then the membranes were blocked with 5% skim milk at room temperature for 1 h. After incubation, the membranes were probed by primary antibodies for β-actin, Bax (BCL2-associated X protein) and Bcl-2 (B-cell lymphoma-2) at 4 °C overnight. After the blots were washed in TBST (Tris-base solution-Tween 20), membranes were incubated with HRP (horseradish peroxidase) -conjugated IgG secondary antibodies for 1 h at 37 °C. Finally, a Chemi-Doc image analyzer was used to determine protein expression levels by analyzing the signals captured on the NC membranes.
Background: In western blotting, separated proteins are transferred to a membrane and probed.

The subject of a further data set is Bax. In words: Western blotting, Bax. The class given is cell-based, human. The note with it: A549 cells, 0-10 μM, 72 h, western blot. As for the experimental part:
as §2

Where only a bound is given, the exact number is not on record here.

Consider `O=c1c2c3c(sc2nc(-c2ccccc2)n1CCc1ccc(O)cc1)CCCCC3` [Compound 15], for which the IC50 (commonly the concentration needed to halve the response being measured) at 72 h in “MTT assay, HL-7702 cells” is greater than 100 µM. The “toxicity to normal human liver cells” value with HL-7702 cells was “no toxicity to normal human liver cells”. Further, the IC50 with PC-3 cells was 47.5 ± 3.39 µM; with PC-9 cells, greater than 100 µM; in the data set on MCF-7 cells, 17.3 ± 0.2 µM; in the data set with A549 cells [1] it was 0.94 ± 0.01 µM. Besides, the inhibition (usually the relative decrease from the control value, in per cent) at 1 µM in the data set on A549 cells [2] amounted to 56%. Also, the “nuclear morphology, Hoechst 33258 staining” value with A549 cells [3] (1 μM) is “brightly stained nuclei due to chromatin condensation”; in the data set with A549 cells [3] (5 and 10 μM), “cell membrane rupture and contraction were observed”. For the same compound, in the data set with caspase-3, the caspase-3 activity result is on record as “accumulation of caspase-3 in the cytosol”. Moreover, the “Bcl-2 protein expression level” value in the data set with Bcl-2 is “reduction of Bcl-2 level”. Further, the Bcl-2/Bax ratio entry in the data set on Bcl-2 (compared to control) is “significant decrease in the proportion of Bcl-2/Bax”. Moreover, in the data set on Bax, the “Bax protein expression level” value is listed as “increase of Bax level”.
